Source: patent publication US10328077B2 (CELGENE CORPORATION, priority 2016, dated 2019)
Read-outs that look alike come from different tables or passages of the source.

Experiments:
[1] = test system: NCI-H1417 SCLC xenograft; test: NCI-H1417 SCLC xenograft efficacy, athymic nude mice; type: in vivo; details: for % TGI: Day 65; for mean body weight gain: end of study
[2] = test system: LU1480 SCLC patient-derived xenograft; test: LU1480 HuPrime SCLC PDX model; type: in vivo, mice
[3] = test system: LXFS 573 SCLC patient-derived xenograft; test: LXFS 573 SCLC PDX model (monotherapy); type: in vivo, mice; details: for % TGI / TGI: Day 28
[4] = LXFS 1129 SCLC PDX model; set-up: species or system mice; details: female, NMRI-Foxnlnu, mouse, in vivo, oral, read-out: AUC0-24
[5] = test system: LXFS 1129 SCLC patient-derived xenograft; test: LXFS 1129 SCLC PDX model; set-up: species or system mice; details: mouse, in vivo
[6] = test system: LXFS 2156 SCLC patient-derived xenograft; test: LXFS 2156 SCLC PDX model; type: in vivo, mice; details: 5 mg base/kg oral QD×23
[7] = test system: LU2527 lung NEC patient-derived xenograft; type: in vivo
[8] = test system: GA0087 gastric NEC patient-derived xenograft; type: in vivo
[9] = test system: MKL-1 hMCC xenograft; type: in vivo; details: 5 mg/kg PO 5 on/2 off
[10] = 4-week oral gavage pivotal toxicity study with 4-week recovery in dogs (incl. ECG, TK); type: in vivo, Beagle dogs; details: for AUC(0-t): Beagle, po, AUC0-168
Procedure: The QTc interval was calculated using the Fridericia method.

[11] = Pharmacokinetics after IV and oral dose, mice; type: in vivo, CD-1 mice; details: mouse
[12] = Pharmacokinetics after IV and oral dose, rats; type: in vivo, Sprague Dawley rats; details: for half-life: read-out: t1/2, z (converted)
[13] = target: P-gp (MDR1) (Homo sapiens (Human), UniProt P08183); test: Permeability in MDR1-MDCK cells; type: in vitro ADME
[14] = target: T1, CYP3A4 (Homo sapiens (Human), UniProt P08684); test: CYP reaction phenotyping with recombinant human CYP enzymes; type: in vitro ADME
Description: The role of non-CYP enzymes in the metabolism of Compound A is yet to be ascertained.

[15] = target: CYP2D6 (Homo sapiens (Human), UniProt P10635); test: CYP inhibition in pooled human liver microsomes, CYP2D6; type: in vitro ADME; details: up to 50 μM
[16] = target: T1, CYP3A4; test: CYP inhibition in pooled human liver microsomes, CYP3A4; type: in vitro ADME
[17] = test system: CYP1A2 mRNA; test: CYP induction in cryopreserved human hepatocytes, CYP1A2; type: in vitro ADME; details: 0.03 to 10 μM, up to 3 days
[18] = Predicted human pharmacokinetics (allometric scaling)
[19] = test system: Salmonella typhimurium TA98 and TA100 strains; test: Bacterial reverse mutation assay; details: up to 500 μg/mL, presence and absence of S9
[20] = Beagle, dog, in vivo, po
[21] = Plasma protein binding, human
[22] = CD-1, plasma, female, single IV dose 5 mg
[23] = CD-1, plasma, female, single oral dose 10 mg base/kg
[24] = Sprague Dawley, plasma, rat, female, single IV dose 5 mg
[25] = Sprague Dawley, plasma, rat, female, single oral dose 5 mg base/kg
[26] = Sprague Dawley, plasma, rat, female, single oral dose 15 mg base/kg
[27] = Sprague Dawley, plasma, rat, female, single oral dose 50 mg base/kg

T1 sequence (P08684 whole entry): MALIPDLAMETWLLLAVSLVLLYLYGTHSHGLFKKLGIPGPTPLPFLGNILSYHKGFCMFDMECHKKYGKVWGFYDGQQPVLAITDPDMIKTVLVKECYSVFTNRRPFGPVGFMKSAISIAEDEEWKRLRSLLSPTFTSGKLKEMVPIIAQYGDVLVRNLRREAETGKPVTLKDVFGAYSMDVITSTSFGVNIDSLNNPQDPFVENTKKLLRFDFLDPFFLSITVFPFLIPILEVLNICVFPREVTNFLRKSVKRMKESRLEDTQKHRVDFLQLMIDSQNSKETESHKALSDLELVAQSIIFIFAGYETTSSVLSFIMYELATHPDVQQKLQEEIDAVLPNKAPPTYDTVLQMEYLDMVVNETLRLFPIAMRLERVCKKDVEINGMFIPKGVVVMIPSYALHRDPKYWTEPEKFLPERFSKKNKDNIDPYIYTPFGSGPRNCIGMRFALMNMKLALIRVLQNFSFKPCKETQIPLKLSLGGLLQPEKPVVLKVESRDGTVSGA
Chain of P-gp (MDR1) (P08183 whole entry): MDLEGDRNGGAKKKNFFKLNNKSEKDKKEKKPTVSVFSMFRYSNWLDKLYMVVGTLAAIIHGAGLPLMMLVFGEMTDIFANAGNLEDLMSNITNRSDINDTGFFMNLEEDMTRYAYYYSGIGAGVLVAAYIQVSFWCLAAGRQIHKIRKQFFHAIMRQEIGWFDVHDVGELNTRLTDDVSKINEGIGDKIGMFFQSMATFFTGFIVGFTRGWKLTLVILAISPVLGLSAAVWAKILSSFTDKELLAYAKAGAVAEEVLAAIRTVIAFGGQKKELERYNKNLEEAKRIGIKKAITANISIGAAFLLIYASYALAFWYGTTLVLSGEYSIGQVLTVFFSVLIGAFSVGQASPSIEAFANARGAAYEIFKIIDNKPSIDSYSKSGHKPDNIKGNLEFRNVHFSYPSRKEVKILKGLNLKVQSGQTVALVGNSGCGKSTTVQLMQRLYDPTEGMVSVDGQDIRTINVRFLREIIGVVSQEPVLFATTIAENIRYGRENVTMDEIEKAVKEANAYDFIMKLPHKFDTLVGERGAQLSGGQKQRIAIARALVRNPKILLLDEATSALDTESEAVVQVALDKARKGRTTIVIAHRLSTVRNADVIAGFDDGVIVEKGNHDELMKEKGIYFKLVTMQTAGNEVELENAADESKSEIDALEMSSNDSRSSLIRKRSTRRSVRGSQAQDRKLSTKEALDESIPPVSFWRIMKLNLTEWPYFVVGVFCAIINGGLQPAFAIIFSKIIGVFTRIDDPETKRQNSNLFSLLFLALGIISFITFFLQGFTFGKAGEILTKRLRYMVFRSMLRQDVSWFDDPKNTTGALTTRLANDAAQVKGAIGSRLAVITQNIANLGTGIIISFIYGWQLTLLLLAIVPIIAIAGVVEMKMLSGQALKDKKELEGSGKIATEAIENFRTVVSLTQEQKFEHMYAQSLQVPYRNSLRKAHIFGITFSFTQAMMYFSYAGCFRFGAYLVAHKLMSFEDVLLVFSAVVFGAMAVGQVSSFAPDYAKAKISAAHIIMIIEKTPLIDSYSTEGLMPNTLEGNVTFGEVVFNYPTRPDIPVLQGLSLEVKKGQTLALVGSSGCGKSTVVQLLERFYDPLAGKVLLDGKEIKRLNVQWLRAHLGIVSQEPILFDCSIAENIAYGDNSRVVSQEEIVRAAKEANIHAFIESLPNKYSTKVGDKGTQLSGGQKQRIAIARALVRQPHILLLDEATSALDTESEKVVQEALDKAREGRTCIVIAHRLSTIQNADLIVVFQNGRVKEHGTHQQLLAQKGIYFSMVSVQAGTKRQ
Chain of CYP2D6 (P10635 whole entry): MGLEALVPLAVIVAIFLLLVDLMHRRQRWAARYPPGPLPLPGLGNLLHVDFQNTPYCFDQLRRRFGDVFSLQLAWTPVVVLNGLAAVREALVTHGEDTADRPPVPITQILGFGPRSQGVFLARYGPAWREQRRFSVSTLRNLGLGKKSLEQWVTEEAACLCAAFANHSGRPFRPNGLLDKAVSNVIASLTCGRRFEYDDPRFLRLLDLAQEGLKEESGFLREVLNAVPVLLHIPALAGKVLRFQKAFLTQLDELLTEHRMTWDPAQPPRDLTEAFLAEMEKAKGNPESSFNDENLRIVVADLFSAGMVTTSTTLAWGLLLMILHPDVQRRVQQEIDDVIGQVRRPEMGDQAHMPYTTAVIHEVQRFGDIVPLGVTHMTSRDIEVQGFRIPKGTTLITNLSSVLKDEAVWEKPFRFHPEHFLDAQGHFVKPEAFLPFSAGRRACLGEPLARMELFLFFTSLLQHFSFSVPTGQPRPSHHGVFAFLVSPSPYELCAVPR

Compound: COc1ccc(-c2c(-c3ccc(C#N)c(F)c3)nc(N3CCC(N)CC3)n(C)c2=O)cc1F [Compound A, 4-[2-(4-amino-piperidin-1-yl)-5-(3-fluoro-4-methoxy-phenyl)-1-methyl-6-oxo-1,6-dihydro-pyrimidin-4-yl]-2-fluoro-benzonitrile]
- Median Tumor Volume Day 65 ([1]; 2.5 mg base/kg PO QDx65): 39.3 mm^3
- Median Tumor Volume Diff. (Day 65 - Day 0) ([1]; 2.5 mg base/kg PO QDx65): −69.9 mm^3
- % TGI ([1]; 2.5 mg base/kg PO QDx65): 159%
- TGI ([1]; 2.5 mg base/kg oral QD×65, Day 65): 159%
- mean body weight gain ([1]; 2.5 mg base/kg): 1%
- Median Tumor Volume Day 65 ([1]; 5 mg base/kg PO QDx65): 15.9 mm^3
- Median Tumor Volume Diff. (Day 65 - Day 0) ([1]; 5 mg base/kg PO QDx65): −92.3 mm^3
- % TGI ([1]; 5 mg base/kg PO QDx65): 178%
- TGI ([1]; 5 mg base/kg oral QD×65, Day 65): 178%
- mean body weight gain ([1]; 5 mg base/kg): 7.5%
- tumors regressed in net volume ([1]; 2.5 and 5 mg base/kg groups together): 14 out of 15
- Median Tumor Volume Day 21 ([2]; 5 mg base/kg PO QDx21): 490.1 mm^3
- Median Tumor Volume Diff. (Day 21 - Day 1) ([2]; 5 mg base/kg PO QDx21): 400.6 mm^3
- Median Tumor Volume Day 21 ([2]; 10 mg base/kg PO QDx21): 321.4 mm^3
- Median Tumor Volume Diff. (Day 21 - Day 1) ([2]; 10 mg base/kg PO QDx21): 234.3 mm^3
- % TGI ([2]; 10 mg base/kg PO QDx21, Day 21): 72%
- TGI ([2]; 10 mg base/kg oral for 21 days): 72%
- Median Tumor Volume Day 28 ([3]; 5 mg base/kg PO QDx28): 308.3 mm^3
- Median Tumor Volume Diff. (Day 28 - Day 0) ([3]; 5 mg base/kg PO QDx28): 199.9 mm^3
- % TGI ([3]; 5 mg base/kg PO QDx28): 78%
- TGI ([3]; 5 mg base/kg oral): 78%
- Median Tumor Volume Day 28 ([3]; 7.5 mg base/kg PO QDx28): 496.6 mm^3
- Median Tumor Volume Diff. (Day 28 - Day 0) ([3]; 7.5 mg base/kg PO QDx28): 383.4 mm^3
- Median Tumor Volume Day 28 ([3]; 10 mg base/kg PO QDx28): 376.8 mm^3
- Median Tumor Volume Diff. (Day 28 - Day 0) ([3]; 10 mg base/kg PO QDx28): 263.0 mm^3
- % TGI ([3]; 10 mg base/kg PO QDx28): 71%
- TGI ([3]; 10 mg/kg oral): 71%
- mean body weight loss ([3]; mouse, in vivo): ≤ 3%
- AUC(0-t) ([4]; 1.5 mg base/kg): 243 ng·h/mL
- AUC(0-t) ([4]; 5 mg base/kg): 1260 ng·h/mL
- mean body weight loss [5]: < 6%
- TGI [6]: −7%
- Median Tumor Volume Day 46 ([7]; 5 mg/kg PO QD x 46): 329.7 mm^3
- Median Tumor Volume Diff (Day 46 - Day 0) ([7]; 5 mg/kg PO QD x 46): 177.9 mm^3
- % TGI ([7]; 5 mg/kg PO QD x 46, Day 46): 84%
- TGI ([7]; 5 mg/kg oral QD for 46 days): 84%
- tolerability ([7]; 1.5 and 5 mg/kg oral QD): acceptably tolerated
- Median Tumor Volume Day 53 ([8]; 5 mg/kg PO QD x 53): 673.2 mm^3
- Median Tumor Volume Diff (Day 53 - Day 0) ([8]; 5 mg/kg PO QD x 53): 863.3 mm^3
- tolerability ([8]; 1.5 and 5 mg/kg oral QD): acceptably tolerated
- Median Tumor Volume Day 15 [9]: 880 mm^3
- Median Tumor Volume Diff (Day 15 - Day -3) [9]: 815 mm^3
- NOEL for CV and respiratory changes ([10]; BIW oral): 0.375 mg base/kg/dose
- HNSTD and NOAEL ([10]; QW or BIW dose schedule): < 0.375 mg base/kg/dose
- NOEL for CV and respiratory changes ([10]; QW oral): 0.75 mg base/kg/dose
- reversibility of findings ([10]; dog, in vivo): complete recovery
- AUC(0-t) ([10]; female, dog, in vivo): 435 ng·h/mL
- AUC(0-t) ([10]; male, dog, in vivo): 503 ng·h/mL
- moribund euthanasia ([10]; weekly oral 0.375 to 1.5 mg base/kg, Days 13 to 23): 11 animals
- primary toxicities ([10]; ≥0.375 mg base/kg/dose, QW or BIW): mucosal ulceration, acute and/or subacute inflammation, and mucosal epithelial atrophy of GI tract tissues
- half-life ([11]; CD-1 (mice), Sprague Dawley (rats), plasma, IV, rodents (mice, rats), read-out: half-life): 2 to 4 h
- Tmax ([11]; CD-1, Sprague Dawley, Beagle, plasma, oral, across mice, rats, dogs, monkeys, read-out: median tmax): 0.5 to 6 h
- bioavailability ([11]; CD-1, Sprague Dawley, plasma, po, rodents, read-out: oral bioavailability): 28 to 74%
- AUC(0-inf) [11, 22]: 2660 ng·h/mL
- AUC(0-t) [11, 22]: 2220 ng·h/mL
- clearance [11, 22]: 32 mL/min/kg
- Vd ([11]; CD-1, plasma, female, single IV dose 5 mg, read-out: Vss): 7.51 L/kg
- half-life ([11]; CD-1, plasma, female, single IV dose 5 mg, read-out: t1/2, z (converted)): 3.8 h
- AUC(0-t) [11, 23]: 2010 ng·h/mL
- Cmax [11, 23]: 510 ng/mL
- bioavailability ([11]; CD-1, plasma, female, single oral dose 10 mg base/kg, read-out: % F): 38%
- half-life ([11]; CD-1, plasma, female, single oral dose 10 mg base/kg, read-out: t1/2, z (converted)): 1.7 h
- Tmax ([11]; CD-1, plasma, female, single oral dose 10 mg base/kg, read-out: tmax): 0.5 h
- systemic clearance ([12]; IV, rats (greater than liver blood flow)): high
- AUC(0-inf) [12, 24]: 733 ng·h/mL
- AUC(0-t) [12, 24]: 680 ng·h/mL
- clearance [12, 24]: 115 mL/min/kg
- Vd ([12]; Sprague Dawley, plasma, rat, female, single IV dose 5 mg, mean (SD), read-out: Vss): 26.2 L/kg
- half-life [12, 24]: 3.6 h
- AUC(0-t) [12, 25]: 222 ng·h/mL
- Cmax [12, 25]: 47 ng/mL
- Tmax [12, 25]: 2 h
- bioavailability [12, 25]: 33%
- half-life [12, 25]: 3 h
- AUC(0-t) [12, 26]: 570 ng·h/mL
- Cmax [12, 26]: 123 ng/mL
- Tmax [12, 26]: 2 h
- bioavailability [12, 26]: 28%
- half-life [12, 26]: 2.9 h
- AUC(0-t) [12, 27]: 4650 ng·h/mL
- Cmax [12, 27]: 621 ng/mL
- Tmax [12, 27]: 6 h
- bioavailability [12, 27]: 74%
- half-life [12, 27]: 3 h
- Papp A→B [13]: 0.5 ×10⁻⁶ cm/s
- Papp B→A [13]: 16.5 ×10⁻⁶ cm/s
- role of CYP3A4 in metabolism [14]: predominantly responsible for the oxidative metabolism
- direct inhibition of CYP2D6 [15]: little to no direct inhibitory effect
- IC50 [16]: > 50 µM
- increase in CYP1A2 mRNA over vehicle control [17]: < 2 fold
- predicted steady state systemic exposure (AUCt) ([18]; 1.25 mg oral QW, 60-kg human, 80% oral bioavailability assumed): 29 ng·h/mL
- predicted clearance ([18]; allometric scaling): 9.4 mL/min/kg
- predicted volume of distribution ([18]; allometric scaling): 17.6 L/kg
- mutagenicity [19]: negative for mutagenicity
- AUC0-96 ([20]; female): 127 ng·h/mL
- Cmax ([20]; female): 5.77 ng/mL
- AUC0-96 ([20]; female, 0.25 mg/kg): 272 ng·h/mL
- Cmax ([20]; female, 0.25 mg/kg): 11.5 ng/mL
- AUC0-96 ([20]; female, 0.5 mg/kg): 618 ng·h/mL
- AUC0-96 ([20]; male): 114 ng·h/mL
- Cmax ([20]; male): 5.81 ng/mL
- AUC0-96 ([20]; male, 0.25 mg/kg): 302 ng·h/mL
- Cmax ([20]; male, 0.25 mg/kg): 10.5 ng/mL
- AUC0-96 ([20]; male, 0.5 mg/kg): 653 ng·h/mL
- bound to plasma proteins [21]: 83%
